# Measured values: ChEMBL document CHEMBL1144040, “Inhibitors of anthrax lethal factor based upon N-oleoyldopamine” (Bioorg Med Chem Lett, 2008)
# Calls of active or inactive are those of the source. No cut-off for these calls is given here.
# Key:
# Lethal factor [1] = target: T1, Lethal factor (Bacillus anthracis, UniProt P15917); assay: Inhibition of Bacillus anthracis lethal factor by FRET assay
# T1 sequence (P15917 whole entry): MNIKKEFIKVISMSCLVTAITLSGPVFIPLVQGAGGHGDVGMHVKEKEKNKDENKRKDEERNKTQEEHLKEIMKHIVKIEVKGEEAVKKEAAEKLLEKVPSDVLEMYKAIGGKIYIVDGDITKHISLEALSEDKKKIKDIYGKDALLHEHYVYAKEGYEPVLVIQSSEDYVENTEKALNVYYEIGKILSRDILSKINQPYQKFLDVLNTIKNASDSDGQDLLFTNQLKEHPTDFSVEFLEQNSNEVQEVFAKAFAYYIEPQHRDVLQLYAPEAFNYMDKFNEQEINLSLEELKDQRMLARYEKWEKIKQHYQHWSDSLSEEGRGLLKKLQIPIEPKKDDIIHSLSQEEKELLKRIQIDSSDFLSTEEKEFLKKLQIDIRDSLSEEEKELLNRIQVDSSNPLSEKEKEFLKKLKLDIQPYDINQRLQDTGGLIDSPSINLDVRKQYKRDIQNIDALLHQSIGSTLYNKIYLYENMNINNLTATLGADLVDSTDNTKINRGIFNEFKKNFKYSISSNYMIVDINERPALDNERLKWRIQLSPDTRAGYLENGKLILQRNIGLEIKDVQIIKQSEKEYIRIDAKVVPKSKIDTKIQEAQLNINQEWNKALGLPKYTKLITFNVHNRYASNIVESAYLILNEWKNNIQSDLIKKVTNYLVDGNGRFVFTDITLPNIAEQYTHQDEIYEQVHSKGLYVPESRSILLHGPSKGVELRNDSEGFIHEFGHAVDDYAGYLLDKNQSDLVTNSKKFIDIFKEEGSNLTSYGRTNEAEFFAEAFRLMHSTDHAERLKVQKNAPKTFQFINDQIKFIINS
# J774.A1 = assay: Inhibition of lethal factor induced toxicity in mouse J774A.1 macrophages after 4 hrs by MTT assay; type: functional, cell-based; conditions: J774.A1, 4 h
# Lethal factor [2] = target: T1, Lethal factor; assay: Inhibition of Bacillus anthracis lethal factor by cell-based assay
# [3] = target: T2, Lethal factor (Bacillus anthracis) (UniProt P15917); assay: Inhibition of Bacillus anthracis lethal factor up to 100 uM by FRET assay
# T2 sequence (whole entry): T1 sequence (P15917 whole entry)
smiles,measurement,setting,value
CCCCCCCC/C=C\CCCCCCCC(=O)NCc1ccc(O)c(O)c1,Ki,Lethal factor [1],2.2 µM
same,IC50,J774.A1,4.3 µM
same,IC50,Lethal factor [2],15 µM
CCCCCC(=O)NCCc1ccc(O)c(O)c1,Activity,[3],inactive
CCCCCCCCCCCCCCCCCC(=O)NCCc1ccc(O)c(O)c1,Activity,[3],inactive
CCCCCCCC/C=C/CCCCCCCC(=O)NCCc1ccc(O)c(O)c1,Activity,[3],inactive
CCCCCCCC/C=C\CCCCCCCC(=O)NCc1ccc(C(=O)NO)cc1,Ki,Lethal factor [1],6.2 µM
same,IC50,Lethal factor [2],42 µM
